How the values were obtained:
JAK2 (Invitrogen) kinase = JAK2 (Invitrogen) kinase (Homo sapiens (Human), UniProt O60674); assay: JAK2 radioactive kinase assay; assay type: biochemical; settings: compound at 10 μM; ATP at 10 μM; substrate poly[Glu:Tyr] (4:1)
Description: Peptide substrate, [[…]], (20 μM) was prepared in reaction buffer (20 mM Hepes pH 7.5, 10 mM MgCl2, 1 mM EGTA, 0.02% Brij35, 0.02 mg/mL BSA, 0.1 mM […], 2 mM DTT, 1% DMSO. TYK2 (Invitrogen) kinase was added, followed by compounds in DMSO. 33PATP was added to initiate the reaction in ATP at 10 μM. Kinase reaction was incubated for 120 min at room temp and reactions were spotted onto P^81 ion exchange paper (Whatman #3698-915), and then washed extensively in 0.75% phosphoric acid, prior to reading the radioactivity counts. For JAK2 (Invitrogen) kinase assay the peptide substrate poly[Glu:Tyr] (4:1), 0.2 mg/mL was used, in the reaction carried out the same as for TYK2.

[1] = tested on: IL-12 induced STAT4 phosphorylation mediated by TYK2/JAK2; assay: IL-12 induced pSTAT4 in human PBMC; assay type: cell-based; settings: 1 hr compound, 1.7 ng/mL IL-12 for 30 minutes
Procedure, shortened: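 Thawed human PBMC were pre-incubated with compound for 1 hr at 37 °C (0.1% DMSO), then stimulated with 1.7 ng/mL IL-12 for 30 minutes. Phospho-STAT4 and total STAT4 were measured in cell lysates by MSD.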

[2] = target: human TYK2 (JH2domain-pseudokinase) (Homo sapiens (Human), UniProt P29597); assay: TYK2 JH2 domain binding assay (KINOMEscan, DiscoveRx); settings: 11-point 3-fold dilution, top concentration 30,000 nM, duplicate; read-out: hTYK2_JH2_Binding (Kd; nM)
Chain of human TYK2 (JH2domain-pseudokinase) (P29597 556-888): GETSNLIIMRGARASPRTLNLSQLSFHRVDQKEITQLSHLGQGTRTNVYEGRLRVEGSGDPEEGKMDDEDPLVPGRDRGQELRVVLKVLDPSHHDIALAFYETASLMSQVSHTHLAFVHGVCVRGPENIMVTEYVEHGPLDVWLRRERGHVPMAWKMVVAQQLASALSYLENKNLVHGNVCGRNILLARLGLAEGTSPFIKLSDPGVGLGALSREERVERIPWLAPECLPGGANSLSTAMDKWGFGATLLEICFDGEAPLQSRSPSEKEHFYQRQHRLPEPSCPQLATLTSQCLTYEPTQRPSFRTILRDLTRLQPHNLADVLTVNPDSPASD
Description: From these HEK 293 cells, extracts were prepared in M-PER extraction buffer (Pierce) in the presence of Protease Inhibitor Cocktail Complete (Roche) and Phosphatase Inhibitor Cocktail Set II (Merck) per manufacturers' instructions. The TYK2 (JH2domain-pseudokinase) fusion protein was labeled with a chimeric double-stranded DNA tag containing the NFkB binding site (5′-[…]-3′) fused to an amplicon for qPCR readout, which was added directly to the expression extract (the final concentration of DNA-tag in the binding reaction is 0.1 nM).
The liganded beads were blocked with excess biotin and washed with blocking buffer (SeaBlock (Pierce), 1% BSA, 0.05% Tween 20, 1 mM DTT) to remove unbound ligand and to reduce nonspecific binding.
Extracts were loaded with DNA-tag and diluted into the binding reaction in a two step process. First extracts were diluted 1:100 in 1× binding buffer (PBS/0.05% Tween 20/10 mM DTT/0.1% BSA/2 μg/ml sonicated salmon sperm DNA) containing 10 nM DNA-tag. […] Kds were determined using an 11-point 3-fold compound dilution series with three DMSO control points. […]
Kds were determined using an 11-point 3-fold compound dilution series with three DMSO control points. […] The Kds were determined using a compound top concentration of 30,000 nM. […]
Binding constants (Kds) were calculated with a standard dose-response curve using the Hill equation: […]

Chain of JAK2 (Invitrogen) kinase (O60674 whole entry): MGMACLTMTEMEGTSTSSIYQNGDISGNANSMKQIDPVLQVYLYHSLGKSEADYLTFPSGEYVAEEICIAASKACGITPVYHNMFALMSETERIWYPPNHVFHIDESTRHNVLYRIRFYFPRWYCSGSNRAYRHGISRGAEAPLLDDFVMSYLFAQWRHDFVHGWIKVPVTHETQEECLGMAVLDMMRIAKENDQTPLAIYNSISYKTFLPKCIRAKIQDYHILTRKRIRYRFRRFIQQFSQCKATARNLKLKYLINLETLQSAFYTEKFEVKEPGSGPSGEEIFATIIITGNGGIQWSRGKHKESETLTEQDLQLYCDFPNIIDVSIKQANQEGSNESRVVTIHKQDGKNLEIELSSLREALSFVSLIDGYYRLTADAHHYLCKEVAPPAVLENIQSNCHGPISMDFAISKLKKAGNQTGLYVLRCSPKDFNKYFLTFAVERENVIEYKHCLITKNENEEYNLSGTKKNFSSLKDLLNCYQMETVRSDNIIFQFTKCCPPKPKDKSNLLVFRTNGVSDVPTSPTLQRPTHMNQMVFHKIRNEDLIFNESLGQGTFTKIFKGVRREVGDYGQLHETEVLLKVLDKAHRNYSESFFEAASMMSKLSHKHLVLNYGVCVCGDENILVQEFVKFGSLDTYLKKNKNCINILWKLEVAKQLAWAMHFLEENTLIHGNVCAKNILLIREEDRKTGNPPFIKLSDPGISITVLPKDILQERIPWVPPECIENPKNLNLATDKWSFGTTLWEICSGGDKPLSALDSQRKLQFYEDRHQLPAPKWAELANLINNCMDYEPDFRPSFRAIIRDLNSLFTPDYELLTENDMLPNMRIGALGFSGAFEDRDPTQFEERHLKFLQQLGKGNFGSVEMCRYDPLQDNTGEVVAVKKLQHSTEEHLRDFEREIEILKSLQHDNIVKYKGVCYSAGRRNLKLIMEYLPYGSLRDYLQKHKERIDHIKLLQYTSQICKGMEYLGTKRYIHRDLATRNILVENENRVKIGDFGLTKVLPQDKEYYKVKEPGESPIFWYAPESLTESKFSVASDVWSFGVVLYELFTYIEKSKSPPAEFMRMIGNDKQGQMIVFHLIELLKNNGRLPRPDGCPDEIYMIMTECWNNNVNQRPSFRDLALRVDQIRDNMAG

| IC50 [1] [µM] | Kd [2] [nM] | SMILES | JAK2 (% Inhibition at 10 μM) (JAK2 (Invitrogen) kinase) |
| --- | --- | --- | --- |
|  |  | CNc1cc(Nc2cccn([C@H]3CC[C@H](OC)CC3)c2=O)nc2c(C(=O)N[C@@H]3CC[C@@H](OC)C3)cnn12 [I-69, 5-((1-((1r,4R)-4-Methoxycyclohexyl)-2-oxo-1,2-dihydropyridin-3-yl)amino)-N-((1R,3R)-3-methoxycyclopentyl)-7-(methylamino)pyrazolo[1,5-a]pyrimidine-3-carboxamide] | A (had a percent inhibition at 10 μM lower than 50) |
|  |  | CNc1cc(Nc2cccn([C@H]3CC[C@H](OC)CC3)c2=O)nc2c(C(=O)N[C@H]3CC[C@H](OC)C3)cnn12 [I-70, 5-((1-((1r,4S)-4-Methoxycyclohexyl)-2-oxo-1,2-dihydropyridin-3-yl)amino)-N-((1S,3S)-3-methoxycyclopentyl)-7-(methylamino)pyrazolo[1,5-a]pyrimidine-3-carboxamide] | A (had a percent inhibition at 10 μM lower than 50) |
| < 0.1 | < 0.2 | CNc1cc(-c2cn([C@H]3CO[C@@H](COC)C3)c3ncccc23)nc2c(C(=O)N[C@H]3CC[C@@H]3OC)cnn12 [I-1018, N-((1S,2S)-2-methoxycyclobutyl)-5-(1-(5-(methoxymethyl)tetrahydrofuran-3-yl)-1H-pyrrolo[2,3-b]pyridin-3-yl)-7-(methylamino)pyrazolo[1,5-a]pyrimidine-3-carboxamide] |  |
| < 0.1 |  | CNc1cc(-c2cnc3n([C@@H]4COC[C@H]4OC)cccc2-3)nc2c(C(=O)NC3CC[C@H]3F)cnn12 (stereo partly drawn) [Compound I-841] |  |
| < 0.1 |  | CNc1cc(-c2cn([C@H]3C[C@@H](O)C3)c3ncccc23)nc2c(C(=O)N[C@H]3CC[C@@H]3OC)cnn12 [Compound I-606] |  |
| < 0.1 |  | CNc1cc(Nc2cccn(C3CC(F)(F)C3)c2=O)nc2c(C(=O)N[C@@H]3C[C@H]3OC)cnn12 [Compound I-139] |  |
| < 0.1 |  | CNc1cc(-c2cn([C@H]3CCC4(C3)OCCO4)c3ncccc23)nc2c(C(=O)N[C@H]3CC[C@@H]3OC)cnn12 [Compound I-808] |  |
| < 0.1 |  | CNc1cc(-c2cnc3n([C@H]4CCOC4)cccc2-3)nc2c(C(=O)N[C@H]3CC[C@@H]3OC)cnn12 [Compound I-1002] |  |

Source: patent US12221453B2, “Substituted pyrazolo[5′,1′:2,3]pyrimido[5,4-b][1,4]oxazines as TYK2 inhibitors” (TAKEDA PHARMACEUTICAL COMPANY LIMITED, priority 2018, dated 2025)
